Reference: PubChem BioAssay (NCI)
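Test compounds were applied to cells in 96-well plates for 48 hours at 5 doses. At the GI50, growth is halved. TGI is the concentration that stops growth completely.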

Columns and labels:
Assay in all cases: DTP human tumour cell line panel, 48 h
SK-MEL-2 melanoma = system: SK-MEL-2 melanoma
UACC-62 melanoma = system: UACC-62 melanoma
BT-549 breast = system: BT-549 breast
SR leukemia = system: SR leukemia
MOLT-4 leukemia = system: MOLT-4 leukemia
HCC-2998 colon = system: HCC-2998 colon
DU-145 prostate = system: DU-145 prostate
CCRF-CEM leukemia = system: CCRF-CEM leukemia
COLO 205 colon = system: COLO 205 colon
HCT-116 colon = system: HCT-116 colon
HCT-15 colon = system: HCT-15 colon
SN12C renal = system: SN12C renal
NCI-H522 lung = system: NCI-H522 lung
HOP-62 NSCLC = system: HOP-62 NSCLC
HS 578T breast = system: HS 578T breast
NCI-H226 lung = system: NCI-H226 lung
MDA-MB-435 = system: MDA-MB-435
MALME-3M melanoma = system: MALME-3M melanoma
SK-MEL-28 melanoma = system: SK-MEL-28 melanoma
ACHN renal = system: ACHN renal
SW-620 colon = system: SW-620 colon
HL-60(TB) leukemia = system: HL-60(TB) leukemia
NCI-H23 lung = system: NCI-H23 lung
U251 CNS = system: U251 CNS
UACC-257 melanoma = system: UACC-257 melanoma
SNB-19 CNS = system: SNB-19 CNS
OVCAR-5 ovarian = system: OVCAR-5 ovarian
NCI-H460 lung = system: NCI-H460 lung
OVCAR-8 ovarian = system: OVCAR-8 ovarian
IGROV1 ovarian = system: IGROV1 ovarian
SF-295 CNS = system: SF-295 CNS
M14 melanoma = system: M14 melanoma
SF-539 CNS = system: SF-539 CNS
LOX IMVI melanoma = system: LOX IMVI melanoma
HOP-92 NSCLC = system: HOP-92 NSCLC
RXF 393 renal = system: RXF 393 renal
CAKI-1 renal = system: CAKI-1 renal
SNB-75 CNS = system: SNB-75 CNS
OVCAR-4 ovarian = system: OVCAR-4 ovarian
T-47D breast = system: T-47D breast
KM12 colon = system: KM12 colon
OVCAR-3 ovarian = system: OVCAR-3 ovarian
UO-31 renal = system: UO-31 renal
HT29 colon = system: HT29 colon
TK-10 renal = system: TK-10 renal
PC-3 prostate = system: PC-3 prostate
SF-268 CNS = system: SF-268 CNS
NCI/ADR-RES ovarian = system: NCI/ADR-RES ovarian
MCF7 breast = system: MCF7 breast
K-562 leukemia = system: K-562 leukemia
786-0 renal = system: 786-0 renal
A549 NSCLC = system: A549 NSCLC
EKVX NSCLC = system: EKVX NSCLC
A498 renal = system: A498 renal
MDA-MB-231 breast = system: MDA-MB-231 breast
RPMI-8226 leukemia = system: RPMI-8226 leukemia
SK-OV-3 ovarian = system: SK-OV-3 ovarian
SK-MEL-5 melanoma = system: SK-MEL-5 melanoma

`C[C@@H]1CCC2[C@@H](C)[C@H](OC(=O)CCC(=O)NCCNC(=O)Cc3cc(=O)oc4cc(N(C)C)ccc34)O[C@@H]3O[C@]4(C)CC[C@@H]1C23OO4` (stereo partly specified) was tested, and the GI50 (SK-MEL-2 melanoma) was 5.4 µM, the TGI (SK-MEL-2 melanoma) was greater than 43.7 µM and the GI50 (UACC-62 melanoma) was 0.711 µM. It also gave a TGI (UACC-62 melanoma) greater than 91 µM, a GI50 (BT-549 breast) of 3.07 µM and a TGI (BT-549 breast) greater than 100 µM. The GI50 (SR leukemia) was 0.561 µM, the TGI (SR leukemia) was 6.83 µM and the GI50 (MOLT-4 leukemia) was 1.75 µM. It also gave a TGI (MOLT-4 leukemia) of 37.9 µM, a GI50 (HCC-2998 colon) of 6.85 µM and a TGI (HCC-2998 colon) greater than 100 µM. It also gave a GI50 (DU-145 prostate) of 10.3 µM, a TGI (DU-145 prostate) of 24 µM and a GI50 (CCRF-CEM leukemia) of 1.57 µM. It also gave a TGI (CCRF-CEM leukemia) greater than 75.7 µM, a GI50 (COLO 205 colon) of 2.62 µM and a TGI (COLO 205 colon) of 15.2 µM. For the same compound, the GI50 (HCT-116 colon) was 0.323 µM, the TGI (HCT-116 colon) was 12.8 µM and the GI50 (HCT-15 colon) was 0.318 µM. The TGI (HCT-15 colon) was 21 µM, the GI50 (SN12C renal) was 4.04 µM and the TGI (SN12C renal) was greater than 100 µM. For the same compound, the GI50 (NCI-H522 lung) was 0.731 µM, the TGI (NCI-H522 lung) was 11.1 µM and the GI50 (HOP-62 NSCLC) was 12.5 µM. The TGI (HOP-62 NSCLC) was greater than 62 µM, the GI50 (HS 578T breast) was 3.21 µM and the TGI (HS 578T breast) was greater than 33.1 µM. For the same compound, the GI50 (NCI-H226 lung) was 7.81 µM, the TGI (NCI-H226 lung) was 35.2 µM and the GI50 (MDA-MB-435) was 0.472 µM. The TGI (MDA-MB-435) was 16.8 µM, the GI50 (MALME-3M melanoma) was 2.02 µM and the TGI (MALME-3M melanoma) was greater than 100 µM. It also gave a GI50 (SK-MEL-28 melanoma) of 17.4 µM, a TGI (SK-MEL-28 melanoma) greater than 100 µM and a GI50 (ACHN renal) of 2.96 µM. For the same compound, the TGI (ACHN renal) was 17.1 µM, the GI50 (SW-620 colon) was 0.457 µM and the TGI (SW-620 colon) was 20.8 µM. It also gave a GI50 (HL-60(TB) leukemia) of 0.301 µM, a TGI (HL-60(TB) leukemia) of 6.77 µM and a GI50 (NCI-H23 lung) of 0.749 µM. The TGI (NCI-H23 lung) was 46.6 µM, the GI50 (U251 CNS) was 1.33 µM and the TGI (U251 CNS) was 19.1 µM. For the same compound, the GI50 (UACC-257 melanoma) was 4.04 µM, the TGI (UACC-257 melanoma) was greater than 100 µM and the GI50 (SNB-19 CNS) was 10.7 µM. The TGI (SNB-19 CNS) was greater than 100 µM, the GI50 (OVCAR-5 ovarian) was 1.28 µM and the TGI (OVCAR-5 ovarian) was greater than 76.9 µM. For the same compound, the GI50 (NCI-H460 lung) was 2.43 µM, the TGI (NCI-H460 lung) was 19.2 µM and the GI50 (OVCAR-8 ovarian) was 0.906 µM. It also gave a TGI (OVCAR-8 ovarian) greater than 47.8 µM, a GI50 (IGROV1 ovarian) of 2.55 µM and a TGI (IGROV1 ovarian) of 17.7 µM. The GI50 (SF-295 CNS) was 2.04 µM, the TGI (SF-295 CNS) was greater than 100 µM and the GI50 (M14 melanoma) was 2.13 µM. The TGI (M14 melanoma) was greater than 74.5 µM, the GI50 (SF-539 CNS) was 3.22 µM and the TGI (SF-539 CNS) was 24.3 µM. The GI50 (LOX IMVI melanoma) was 0.566 µM, the TGI (LOX IMVI melanoma) was 2.31 µM and the GI50 (HOP-92 NSCLC) was 2.6 µM. It also gave a TGI (HOP-92 NSCLC) of 16.9 µM, a GI50 (RXF 393 renal) of 3.45 µM and a TGI (RXF 393 renal) of 43.2 µM. It also gave a GI50 (CAKI-1 renal) of 2.64 µM, a TGI (CAKI-1 renal) greater than 25.6 µM and a GI50 (SNB-75 CNS) of 8.22 µM. It also gave a TGI (SNB-75 CNS) of 29.2 µM, a GI50 (OVCAR-4 ovarian) of 11.4 µM and a TGI (OVCAR-4 ovarian) greater than 100 µM. The GI50 (T-47D breast) was 0.862 µM, the TGI (T-47D breast) was 50.2 µM and the GI50 (KM12 colon) was 0.432 µM. The TGI (KM12 colon) was 16.3 µM, the GI50 (OVCAR-3 ovarian) was 0.629 µM and the TGI (OVCAR-3 ovarian) was 18.1 µM. It also gave a GI50 (UO-31 renal) of 0.897 µM, a TGI (UO-31 renal) of 4.15 µM and a GI50 (HT29 colon) of 1.05 µM. The TGI (HT29 colon) was 19.6 µM, the GI50 (TK-10 renal) was 3.24 µM and the TGI (TK-10 renal) was 18.6 µM. It also gave a GI50 (PC-3 prostate) of 0.189 µM, a TGI (PC-3 prostate) greater than 100 µM and a GI50 (SF-268 CNS) of 5.25 µM. The TGI (SF-268 CNS) was greater than 65.2 µM, the GI50 (NCI/ADR-RES ovarian) was 1.19 µM and the TGI (NCI/ADR-RES ovarian) was 22.9 µM. For the same compound, the GI50 (MCF7 breast) was 2.92 µM, the TGI (MCF7 breast) was 28.2 µM and the GI50 (K-562 leukemia) was 0.348 µM. The TGI (K-562 leukemia) was 13.8 µM, the GI50 (786-0 renal) was 4.24 µM and the TGI (786-0 renal) was 65.2 µM. It also gave a GI50 (A549 NSCLC) of 4.52 µM, a TGI (A549 NSCLC) of 23.1 µM and a GI50 (EKVX NSCLC) of 0.645 µM. It also gave a TGI (EKVX NSCLC) of 9.47 µM, a GI50 (A498 renal) of 7.5 µM and a TGI (A498 renal) greater than 89.9 µM. It also gave a GI50 (MDA-MB-231 breast) of 22.6 µM, a TGI (MDA-MB-231 breast) greater than 100 µM and a GI50 (RPMI-8226 leukemia) of 0.378 µM. For the same compound, the TGI (RPMI-8226 leukemia) was 32.9 µM, the GI50 (SK-OV-3 ovarian) was 29 µM and the TGI (SK-OV-3 ovarian) was greater than 100 µM. The GI50 (SK-MEL-5 melanoma) was 1.48 µM and the TGI (SK-MEL-5 melanoma) was greater than 39.3 µM.
